Laboratory results as given in paper PMC5920559 (Journal of medicinal chemistry, 2017).
Converted amounts (≈) assume the structure as drawn. Where two headings read alike, the source gives them in different places. Peptide text beside a SMILES is read from it. * marks the point of attachment. Cbz = O=C(OCc1ccccc1)*

What was measured:
[1] = tested on: LC3-I/II and p62 in HEK293 cells; assay: autophagy markers immunoblot; type: cell-based; conditions: 8 h
[2] = tested on: SMN2-luc reporter cell line; assay: SMN2-luciferase; type: cell-based; conditions: 24 h
[3] = biological target: endogenous SMN protein in HEK293 cells (Homo sapiens, UniProt Q16637); assay: pulse-chase SMN protein half-life; type: cell-based; conditions: 10 µM
Chain of endogenous SMN protein in HEK293 cells (Q16637 whole entry, the tested form may be a part): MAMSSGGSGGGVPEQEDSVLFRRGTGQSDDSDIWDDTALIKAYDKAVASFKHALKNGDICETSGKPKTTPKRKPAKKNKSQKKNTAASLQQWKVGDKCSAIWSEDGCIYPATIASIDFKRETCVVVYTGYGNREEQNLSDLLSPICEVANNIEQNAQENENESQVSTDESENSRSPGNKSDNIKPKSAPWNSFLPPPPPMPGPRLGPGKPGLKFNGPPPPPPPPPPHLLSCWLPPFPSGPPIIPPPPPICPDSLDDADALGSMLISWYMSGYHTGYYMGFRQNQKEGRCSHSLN

SMN-luc fusion = SMN-luc fusion (UniProt P08659+Q16637); assay: SMN-luc protein stability with cycloheximide; type: cell-based; conditions: with cycloheximide 10 µM, compound 10 µM
[4] = tested on: human SMN protein in 3813T fibroblasts; conditions: cited from earlier work
SMN-luciferase mRNA [5] = conditions: cited from earlier work
severe SMA mice (SMNΔ7) = severe SMA mice (SMNΔ7) printed for 5; cited from earlier work
mouse pharmacokinetics = type: in vivo; conditions: for Cmax: plasma, plasma Cmax
[6] = tested on: renilla luciferase protein; assay: Renilla-luc protein stability with cycloheximide; conditions: with cycloheximide 10 µM, compound 10 µM
[7] = kinetic solubility at pH 7.4; type: physicochemical; conditions: aqueous medium (buffer not named)
[8] = plasma protein binding, mouse plasma; type: in vitro ADME
[9] = plasma protein binding, human plasma; type: in vitro ADME
SH5Y5Y cells = assay: cell viability; type: cell-based; conditions: up to 100× its EC50, 48 h
acid stability in HCl = type: physicochemical; conditions: 0.1 and 1 N HCL, 37 °C, each time point 1, 2, 4, 6, 24 h, LCMS
SV40 reporter cells = assay: SV40 promoter luciferase counterscreen; type: cell-based
recombinant luciferase = recombinant luciferase (Photinus pyralis, UniProt P08659); assay: recombinant luciferase activity; type: biochemical
Chain of recombinant luciferase (P08659 whole entry): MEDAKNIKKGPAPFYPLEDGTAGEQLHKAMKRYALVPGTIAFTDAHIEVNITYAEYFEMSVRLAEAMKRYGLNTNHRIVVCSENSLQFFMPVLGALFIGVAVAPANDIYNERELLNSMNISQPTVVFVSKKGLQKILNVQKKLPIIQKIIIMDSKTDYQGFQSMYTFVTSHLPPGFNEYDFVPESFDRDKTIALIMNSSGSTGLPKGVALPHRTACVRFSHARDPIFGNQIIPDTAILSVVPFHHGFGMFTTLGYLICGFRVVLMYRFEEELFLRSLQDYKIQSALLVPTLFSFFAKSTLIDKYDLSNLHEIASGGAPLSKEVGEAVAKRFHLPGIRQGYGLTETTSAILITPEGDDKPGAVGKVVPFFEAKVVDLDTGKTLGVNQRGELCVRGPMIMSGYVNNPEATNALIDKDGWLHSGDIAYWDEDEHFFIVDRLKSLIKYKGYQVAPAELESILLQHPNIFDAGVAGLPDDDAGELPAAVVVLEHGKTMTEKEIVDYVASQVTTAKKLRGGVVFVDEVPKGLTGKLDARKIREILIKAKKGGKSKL

58 kinase panel = assay: 58 kinase panel; type: biochemical; conditions: 10 µM
[10] = tested on: 64 target broad panel (e.g., GPCRs and ion channels); assay: 64 target broad panel screen; conditions: 10 µM
hERG = hERG (Homo sapiens, UniProt Q12809); assay: hERG safety profiling; conditions: 10 µM
Chain of hERG (Q12809 whole entry): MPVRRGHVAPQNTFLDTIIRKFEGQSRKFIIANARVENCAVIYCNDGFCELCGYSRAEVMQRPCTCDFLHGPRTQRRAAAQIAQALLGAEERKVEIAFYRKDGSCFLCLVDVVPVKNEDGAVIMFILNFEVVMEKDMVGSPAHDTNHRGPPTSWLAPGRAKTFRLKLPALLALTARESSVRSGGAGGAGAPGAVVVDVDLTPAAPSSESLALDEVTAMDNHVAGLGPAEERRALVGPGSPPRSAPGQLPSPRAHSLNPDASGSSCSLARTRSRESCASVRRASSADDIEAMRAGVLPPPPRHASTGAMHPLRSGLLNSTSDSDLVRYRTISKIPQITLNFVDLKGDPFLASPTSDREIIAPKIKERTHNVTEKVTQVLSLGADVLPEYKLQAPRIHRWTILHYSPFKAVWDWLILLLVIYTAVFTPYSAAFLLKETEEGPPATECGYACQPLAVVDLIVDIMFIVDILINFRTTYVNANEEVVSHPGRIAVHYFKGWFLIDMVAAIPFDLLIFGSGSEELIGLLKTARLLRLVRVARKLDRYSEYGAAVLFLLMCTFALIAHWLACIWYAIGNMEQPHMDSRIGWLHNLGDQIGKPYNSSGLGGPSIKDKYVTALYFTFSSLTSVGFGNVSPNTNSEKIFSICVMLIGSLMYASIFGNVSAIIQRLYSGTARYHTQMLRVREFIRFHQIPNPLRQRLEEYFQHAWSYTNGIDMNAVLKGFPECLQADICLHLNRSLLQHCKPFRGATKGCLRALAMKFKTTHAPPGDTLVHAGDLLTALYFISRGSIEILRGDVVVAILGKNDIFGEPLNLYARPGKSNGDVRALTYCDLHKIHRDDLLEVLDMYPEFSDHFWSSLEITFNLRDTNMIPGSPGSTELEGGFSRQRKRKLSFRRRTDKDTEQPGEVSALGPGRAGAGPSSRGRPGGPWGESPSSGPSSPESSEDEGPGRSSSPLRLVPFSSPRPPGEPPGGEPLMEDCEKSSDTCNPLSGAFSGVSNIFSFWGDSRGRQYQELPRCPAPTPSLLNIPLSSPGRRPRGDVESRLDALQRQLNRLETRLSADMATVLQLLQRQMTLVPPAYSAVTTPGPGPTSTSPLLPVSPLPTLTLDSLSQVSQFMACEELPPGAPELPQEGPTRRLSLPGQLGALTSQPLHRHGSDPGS

SMN2 reporter cells = assay: constant ratio combination experiment in SMN2 reporter cells; type: cell-based
SMN-luciferase mRNA [11] = assay: qRT-PCR of SMN-luciferase mRNA; type: cell-based; conditions: 1, 10 µM, 24 h
[12] = tested on: polyubiquitinated proteins in HEK293 cells; assay: polyubiquitinated proteins immunoblot; type: cell-based; conditions: for effect on basal level of polyubiquitinated proteins: 1 and 10 µM
[13] = tested on: p53 and p21-Cip1 in HEK293 cells; assay: levels of short-lived proteins p53 and p21; type: cell-based; conditions: alone or after cycloheximide
[14] = tested on: MBP-HPV-16 E6 mediated degradation of p53; assay: HPV16 E6 mediated p53 in vitro degradation assay; type: biochemical; conditions: preincubation of rabbit reticulocyte lysates, 30 min

CCN(CC)CCCC(C)Nc1ccnc2cc(Cl)ccc12 (stereo not drawn) [Chloroquine, reference compound]
effect on p62 and LC-3 II protein levels [1]: increased

CC(C)c1cc(C(=O)Nc2ccc(F)c(Cl)c2)no1 [Compound 4, N-(3-Chloro-4-fluorophenyl)-5-isopropylisoxazole-3-carboxamide]
EC50 [2]: 1.8 µM
effect on SMN protein half-life [3]: increased
stabilization of SMN-luc fusion (SMN-luc fusion): stabilized
SMN expression in SMA-derived fibroblast [4]: promoted increases
effect on SMN mRNA expression and exon 7 inclusion (SMN-luciferase mRNA [5]): did not alter SMN mRNA expression or exon 7 inclusion
in vivo activity (severe SMA mice (SMNΔ7)): inactive

CC(C)c1cc(C(=O)Nc2ccccn2)no1 [Compound 4m, 5-Isopropyl-N-(pyridin-2-yl)isoxazole-3-carboxamide]
brain Cmax (mouse pharmacokinetics; 20 mpk ip, 20 mg/kg): 6 ng/mL
plasma Cmax (mouse pharmacokinetics; 20 mpk ip, 20 mg/kg): 3 ng/mL
plasma and brain levels after 30 min (mouse pharmacokinetics; ip 20 mg/kg): below the levels of detection

COc1cc2c(c(OC)c1OC)C(c1cc(Br)ccc1F)CC(=O)N2 (stereo not drawn) [Compound 5, reference compound]
stabilization of SMN-luc fusion (SMN-luc fusion): Neither
in vivo activity (severe SMA mice (SMNΔ7)): increases SMN protein and the survival
stabilization of renilla luciferase protein [6]: Neither

O=C(Nc1ncc(C2CCC2)s1)c1ccc(F)c(Cl)c1 [Compound 26, 3-Chloro-N-(5-cyclobutylthiazol-2-yl)-4-fluorobenzamide]
Emax ([2]; read-out: % Activation): 100 ± 16%

O=C(Nc1ncc(C2(O)CCC2)s1)c1ccc(F)c(Cl)c1 [Compound 27, 3-Chloro-4-fluoro-N-(5-(1-hydroxycyclobutyl)thiazol-2-yl)-benzamide]
solubility [7]: ~10 µg/mL (≈ 30.6 µM)
Cmax (mouse pharmacokinetics; ip, 20 mg/kg, ip 20 mg/kg): 23 µM
Cmax (mouse pharmacokinetics; po, 20 mg/kg, adult mice, orally 20 mg/kg): 0.9 µM
free fraction in mouse plasma [8]: 4.7 % free
free fraction in human plasma [9]: 3.5 % free
effect on viability of SH5Y5Y cells (SH5Y5Y cells): no effect
degradation in acid (acid stability in HCl): less than 5%
effect on luc levels expressed from a minimal SV40 promoter (SV40 reporter cells): minimal effects
effect on recombinant luciferase protein in vitro (recombinant luciferase): minimal effects
inhibition in 58 kinase panel (58 kinase panel): < 50%
inhibition of 64 other targets [10]: < 50%
inhibition of hERG activity (hERG): < 50%
SMN2-luc level on combined exposure with 4 (SMN2 reporter cells; in combination with 4, 24 h): did not result in additive or above additive levels
SMN2-luc level on combined exposure with 5 (SMN2 reporter cells; in combination with transcriptional activator 5, 24 h): an activation above the theoretical additive was observed
effect on SMN mRNA expression and exon 7 inclusion (SMN-luciferase mRNA [11]): did not alter SMN mRNA expression or exon 7 inclusion
stabilization of SMN-luc fusion (SMN-luc fusion): stabilized
effect on basal level of polyubiquitinated proteins [12]: no effect
effect on cellular levels of p53 and p21-Cip1 [13]: did not alter
inhibition of MBP-HPV-16 E6 mediated degradation of p53 [14]: no inhibition
effect on p62 and LC-3 II protein levels [1]: did not alter

CC(C)C[C@@H](C=O)NC(=O)[C@H](CC(C)C)NC(=O)[C@H](CC(C)C)NC(=O)OCc1ccccc1 [MG-132] (Cbz-Leu-Leu-Leu-aldehyde)
effect on SMN protein half-life [3]: increased
effect on basal level of polyubiquitinated proteins [12]: increased
inhibition of cycloheximide-induced reduction of polyubiquitinated proteins ([12]; 2 h pretreatment then cycloheximide 10 µM): inhibited

O=C(CCCCCCC(=O)Nc1ccccc1)NO [SAHA, suberoylanilide hydroxamic acid, reference compound]
stabilization of SMN-luc fusion (SMN-luc fusion): Neither
stabilization of renilla luciferase protein [6]: Neither
